The source of these data is patent US20250177359A1, “COMPOUNDS FOR USE IN THE TREATMENT OF CANCER AND INFLAMMATORY CONDITIONS” (priority 2022, published 2025).

The experiment concerns the target T1, PARP15 (Homo sapiens, UniProt Q460N3).
T1 sequence (Q460N3 1-678): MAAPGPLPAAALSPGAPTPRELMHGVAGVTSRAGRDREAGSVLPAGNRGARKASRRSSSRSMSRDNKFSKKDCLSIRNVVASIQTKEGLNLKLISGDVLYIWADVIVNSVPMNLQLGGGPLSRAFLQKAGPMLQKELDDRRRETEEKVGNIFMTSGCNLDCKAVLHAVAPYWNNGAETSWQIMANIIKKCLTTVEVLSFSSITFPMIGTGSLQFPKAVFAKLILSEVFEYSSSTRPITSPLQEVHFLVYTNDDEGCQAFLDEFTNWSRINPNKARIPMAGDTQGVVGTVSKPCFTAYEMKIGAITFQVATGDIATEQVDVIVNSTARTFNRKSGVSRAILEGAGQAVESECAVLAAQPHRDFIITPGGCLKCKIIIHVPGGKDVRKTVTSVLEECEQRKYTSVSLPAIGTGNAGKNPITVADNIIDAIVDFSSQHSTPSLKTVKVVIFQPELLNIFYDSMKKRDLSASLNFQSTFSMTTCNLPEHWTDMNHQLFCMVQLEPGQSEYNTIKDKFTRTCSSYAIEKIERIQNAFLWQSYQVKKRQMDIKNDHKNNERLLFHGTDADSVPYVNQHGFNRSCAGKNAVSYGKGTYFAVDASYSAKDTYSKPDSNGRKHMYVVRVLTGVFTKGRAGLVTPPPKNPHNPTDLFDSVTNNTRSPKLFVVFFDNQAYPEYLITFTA
Kind of experiment: biochemical.

In turn, `Nc1nnc2sc3cc(O)ccc3n12` [Compound 109, 3-Amino[1,2,4]triazolo[3,4-b][1,3]benzothiazol-7-ol] showed an IC50 of 680 nM.

In general, IC50 refers to the point on the concentration scale where inhibition reaches its midpoint. A high value points to weaker potency.
